Consider eight molecules from patent US9745255B2, “Meta-substituted biphenyl peripherally restricted FAAH inhibitors” (The Regents of the University of California, priority 2011, dated 2017).

Broadly, the IC50 is the concentration that gives 50% inhibition. The low end stands for greater potency in that assay, the high end for weaker potency in that assay. As a reminder, the inhibition is the drop in the measured response relative to a control, in per cent.

The target of data set [1] is T1, FAAH (Rattus norvegicus, UniProt P97612).
T1 construct: Wistar rats were typically used for the FAAH studies; from tissue; host or cells: Wistar rat
T1 sequence (P97612 1-579): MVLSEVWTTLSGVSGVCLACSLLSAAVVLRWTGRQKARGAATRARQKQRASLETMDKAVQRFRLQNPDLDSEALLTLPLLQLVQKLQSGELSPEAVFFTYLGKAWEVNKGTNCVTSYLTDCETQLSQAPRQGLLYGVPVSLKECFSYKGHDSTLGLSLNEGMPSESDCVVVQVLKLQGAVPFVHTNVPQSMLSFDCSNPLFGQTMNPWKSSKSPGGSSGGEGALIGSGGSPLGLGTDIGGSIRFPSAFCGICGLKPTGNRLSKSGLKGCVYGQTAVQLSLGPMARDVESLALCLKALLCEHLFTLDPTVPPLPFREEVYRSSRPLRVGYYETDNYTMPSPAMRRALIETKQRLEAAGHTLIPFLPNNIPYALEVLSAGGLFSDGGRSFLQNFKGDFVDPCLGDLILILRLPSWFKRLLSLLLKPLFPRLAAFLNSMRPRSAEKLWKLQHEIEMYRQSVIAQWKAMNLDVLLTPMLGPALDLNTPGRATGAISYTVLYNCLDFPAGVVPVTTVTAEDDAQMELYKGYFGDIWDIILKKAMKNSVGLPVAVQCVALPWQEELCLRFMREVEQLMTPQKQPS
Briefly: In vitro FAAH assay (IC50, Tables 1 and 2). The class given is biochemical. The method, then:
Male Swiss Webster and CD1 mice (Charles River, 20-30 g) were used. Mice were group-housed in standard cages at room temperature on a 12:12 h light:dark cycle with unlimited access to water and standard chow pellets. Wistar rats were typically used for the FAAH studies. All experiments met the National Institutes of Health guidelines for the care and use of laboratory animals, were approved by the Institutional Animal Care and Use Committee of the University of California, Irvine, and the University of Georgia, Athens, and were in compliance with the European Community Council Directive 86 (609) EEC and the experimental protocol was carried out in compliance with Italian regulations (DL 116/92).
(§1) Comparison of compounds according to the invention with other peripherally restricted FAAH inhibitors for their ability to inhibit FAAH in the periphery. […] In particular, (1) IC50 values were generated in vitro using a FAAH assay. […] Mice received a 1 mg/kg dose of each compound by the intraperitoneal route, and were killed 2 h after administration. Tissues were collected and FAAH activity was measured ex vivo in tissue extracts (membrane fraction) using the FAAH assay.

Data set [2] concerns the target T2, FAAH (Mus musculus, UniProt O08914).
T2 sequence (O08914 1-579): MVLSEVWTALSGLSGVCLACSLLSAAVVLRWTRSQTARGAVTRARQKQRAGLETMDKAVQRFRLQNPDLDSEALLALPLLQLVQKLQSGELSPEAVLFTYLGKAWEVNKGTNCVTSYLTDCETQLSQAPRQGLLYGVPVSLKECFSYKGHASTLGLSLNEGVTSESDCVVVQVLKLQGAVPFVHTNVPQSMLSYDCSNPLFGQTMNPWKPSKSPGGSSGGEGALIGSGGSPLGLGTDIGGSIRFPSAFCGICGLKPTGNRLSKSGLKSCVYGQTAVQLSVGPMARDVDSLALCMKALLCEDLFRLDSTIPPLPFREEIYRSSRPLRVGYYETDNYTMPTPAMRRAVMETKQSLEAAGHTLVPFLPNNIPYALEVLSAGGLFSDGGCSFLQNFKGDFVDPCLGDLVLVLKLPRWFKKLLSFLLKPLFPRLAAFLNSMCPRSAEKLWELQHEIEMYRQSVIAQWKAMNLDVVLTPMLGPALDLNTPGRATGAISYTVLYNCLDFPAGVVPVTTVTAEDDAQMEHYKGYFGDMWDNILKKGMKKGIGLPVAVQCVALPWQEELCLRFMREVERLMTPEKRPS
Briefly: Ex vivo FAAH activity in liver and brain tissue extracts after i.p. administration to mice. On the set-up: from tissue; host or cells: mouse liver and brain, membrane fraction of tissue extracts. Particulars: for inhibition at 1 mg/kg: mouse, ip, Table 1, mice, 1 mg/kg intraperitoneal, killed 2 h after administration, ex vivo. The method, then: as §1

The test system of data set [3] is carrageenan-induced hyperalgesia in male CD1 mice. Briefly: Carrageenan-induced mechanical hyperalgesia. The class given is in vivo, mouse. Particulars: oral administration, p<0.001 vs. vehicle (FIG. 2). The method, then:
(§2) Peripheral inflammation was induced by intraplantar (i.pl.) injection of the polysaccharide λ-carrageenan (i.pl. 1% weight vol^−1 in sterile water, 20 μL) into the left hind paw of male CD1 mice.
(§3) Nocifensive responses were measured elicited by intraplantar injection of carrageenan in male CD1 mice (LoVerme, J., La Rana, G., Russo, R., Calignano, A., & Piomelli, D., The search for the palmitoylethanolamide receptor. Life Sci 77 (14), 1685-1698 (2005)).
(§4) Mechanical hyperalgesia was determined by measuring the latency in seconds to withdraw the paw away from a constant mechanical pressure exerted onto the dorsal surface. […] Withdrawal threshold was measured on the inflamed ipsilateral paw at different time points after oral drug administration. […] Thermal hyperalgesia was assessed as described (Hargreaves, K., Dubner, R., Brown, F., Flores, C., & Joris, J., A new and sensitive method for measuring thermal nociception in cutaneous hyperalgesia. Pain 32 (1), 77-88 (1988)), measuring the latency to withdraw the hindpaw from a focused beam of radiant heat (thermal intensity: infrared 3.0) applied to the plantar surface using a plantar test apparatus (Ugo Basile, Italy). […] Withdrawal latency was measured on the inflamed ipsilateral paw at different time points after oral drug administration. […]

The test system is the same in data set [4]. The data set is described as follows: Carrageenan-induced thermal hyperalgesia. The class given is in vivo, mouse. Particulars: oral administration, p<0.001 vs. vehicle (FIG. 3). As to the method: as §2, §3, §4
In data set [5] the test system is carrageenan-induced edema in male CD1 mice. The data set is described as follows: Carrageenan-induced paw edema. Format: in vivo, mouse. Particulars: oral administration, 10 and 30 mg/kg, vs. vehicle (FIG. 1). As to the method: as §2
Paw edema was induced in mice by injection into the right hind paws of 50 μL, of sterile saline containing 1% λ-carrageenan. Paw volumes were measured using a plethysmometer (Ugo Basile, Milan, Italy). […] The increase in paw volume (mL) was evaluated as the difference between the paw volume measured at each time point and the basal paw volume measured immediately before carrageenan injection.
For orientation: In the carrageenan paw model, swelling and tenderness develop within hours.

Data set [6] is described as follows: Brain entry after systemic administration in mice. The class given is in vivo, mouse. Particulars: inferred from Table 3. An excerpt: The activity of compounds of Formula I as peripherally restricted FAAH inhibitors was found based in part on the polarity of the p-hydroxyphenyl moiety.
Data set [7] relates to rodent models of inflammation and peripheral nerve injury. The data set is described as follows: Rodent models of inflammation and peripheral nerve injury (persistent pain). Particulars: prevented by CB1 receptor blockade. The class given is in vivo. An excerpt: (§5) Peripheral cannabinoid receptors exert a powerful inhibitory control over pain initiation, but the endogenous cannabinoid signal that normally engages this intrinsic analgesic mechanism is unknown. […] CB1 receptor blockade prevents these effects. […] Accordingly, relatively brain-impermeant FAAH inhibitors, which strengthen this gating mechanism, offer a new approach to pain therapy (see, U.S. Provisional Patent Application Ser. No. 61/368,500, filed on Jul. 28, 2010, which is incorporated herein by reference in its entirety for all purposes, and specifically with respect to methods of assaying FAAH inhibitors for their biological and pharmaceutical properties, and the pharmacological properties of peripherally restricted FAAH inhibitors in general).

The target in data set [8] is T2, FAAH. The data set is described as follows: FAAH activity and anandamide levels outside the CNS. On the set-up: suppressed FAAH activity and increased anandamide levels outside the central nervous system (CNS); from tissue; host or cells: peripheral tissues of the dosed animal, not specified. Particulars: in vivo. The text has this: Peripheral cannabinoid receptors exert a powerful inhibitory control over pain initiation, but the endogenous cannabinoid signal that normally engages this intrinsic analgesic mechanism is unknown.

A short description of data set [9]: Transport system mediated extrusion from brain. Particulars: in vivo.
Description: as §5

[10] abbreviates: brain membrane fraction, read-out: FAAH inhibition in brain.
[11] abbreviates: liver membrane fraction, read-out: FAAH inhibition in liver.

SMILES strings stand for the structures. Read-outs that look alike come from different tables or passages of the source.

The molecule `NC(=O)c1cccc(-c2cc(OC(=O)NC3CCCCC3)ccc2C(=O)O)c1` [ARN0715] showed an IC50 in [1] (Table 2 (Example 5)) of 2.1 µM. The “FAAH inhibition in brain” value in data set [2] (Table 2 (Example 5), brain) is reported as −2.1 ± 0.5%. Besides, in data set [2] (Table 2 (Example 5), liver), the “FAAH inhibition in liver” value is recorded as 86.3 ± 1.3%.
On to `NC(=O)c1cccc(-c2cc(O)cc(OC(=O)NC3CCCCC3)c2)c1` [Compound 1, [3-(3-carbamoylphenyl)-5-hydroxy-phenyl]N-cyclohexylcarbamate], for which the “withdrawal threshold on inflamed ipsilateral paw, mechanical hyperalgesia test” value in [3] is “increased”. The results for the inhibition at 1 mg/kg in data set [2] (setting [10]) and in [2] (setting [11]) were -4.2 ± 2.5% and 89.5 ± 1.1%, respectively. For the same molecule, the “withdrawal threshold on inflamed ipsilateral paw, thermal hyperalgesia test” value in [4] is reported as “increased”. Moreover, in data set [5], the “difference between paw volume at each time point and basal paw volume (carrageenan-induced edema)” value is “reduced”.
Take `COc1ccc(OC(=O)NC2CCCCC2)cc1-c1cccc(C(N)=O)c1` [Compound 1c]: in data set [6], the “entry into the brain after systemic administration” value was “enter the brain”.
Same read-out and setting: the same measure for `Cc1ccc(OC(=O)NC2CCCCC2)cc1-c1cccc(C(N)=O)c1` [Compound 1d]: “enter the brain”.
Consider `NC(=O)c1cccc(-c2cc(OC(=O)NC3CCCCC3)ccc2F)c1` [Compound 1e], for which the “entry into the brain after systemic administration” value in [6] was “enter the brain”.
The same measure, in the same setting: the same measure for `NC(=O)c1cccc(-c2cc(OC(=O)NC3CCCCC3)ccc2N)c1` [Compound 1f]: “largely excluded”.
Consider `CNC(=O)c1cccc(-c2cc(O)cc(OC(=O)NC3CCCCC3)c2)c1` [Compound 2, [3-hydroxy-5-[3-(methylcarbamoyl)phenyl]phenyl]N-cyclohexylcarbamate], for which, in data set [1] (Table 1, in vitro FAAH assay), the IC50 was 0.0003 µM. The inhibition at 1 mg/kg in [2] (setting [10]) is -1.7 ± 0.2%; in data set [2] (setting [11]), 69.1 ± 3.5%.
With `NC(=O)c1cccc(-c2cc(OC(=O)NC3CCCCC3)ccc2O)c1` [URB937], the “noxious stimulus-evoked neuronal activation in spinal cord regions implicated in nociceptive processing” value in data set [7] is recorded as “suppresses”. The “behavioral responses indicative of persistent pain” value in data set [7] (rodent models of inflammation and peripheral nerve injury) is “attenuated”. Besides, in data set [8], the “FAAH activity outside the central nervous system (CNS)” value is “suppressed” and the “anandamide levels outside the central nervous system (CNS)” value is listed as “increased”. The “susceptibility to transport system mediated extrusion from brain” value in [9] was “surprisingly susceptible”.
